“And” between values parts separate entries of the source, which are not always exact repeats. Equal entries are not always repeated.
How the values were obtained:
[1] = tested on: small intestine epithelium; conditions: mouse, in vivo
Description: The whole small intestine (duodenum, jejunum and ileum) was removed, cleaned from fecal content and fixed in 4% of PFA for 1 h. Re-hydration of the tissue was performed in 15% sucrose for 1 h and in 30% sucrose overnight. Depending on the experiment, the small intestine was entirely rolled, or cut into small pieces, then embedded in optimum cutting temperature (OCT) compound (Sakura), snap frozen and longitudinal or transversal […] were prepared.
For histological analyses, the longitudinal sections were counterstained with hematoxilin and eosin. For the histological quantitative analyses, inflammatory foci, altered villi and the thickness of lamina propria were scored for each section, while the number of goblet cells was counted for each villus. […] Then, a rabbit polyclonal antibody against the lysozyme protein (1:500 for 1 h, Thermo Scientific) and ALEXA FLUOR 488 Fragment of goat anti-rabbit IgG (1:300 for 1 h, Molecular Probes) were used. All steps were performed at room temperature. Lysozyme-positive areas were quantified on mosaic images using the Histolab software (Microvision Instruments). The quantification of Paneth cells was performed measuring the average area of the Lysozyme-positive clusters (group of Paneth cells) as well as the emission/μm^2 of those clusters (not shown).

commensal bacteria = type: in vivo, mice
Description: Mesenteric lymph nodes and spleens were aseptically removed, smashed in PBS and plated onto COS agar plates (BioMérieux), for aerobic and anaerobic growth. After 48 h of culture, single colonies were isolated and stocked in glycerol at −80° C.
Serial dilutions of feces from naïve mice or tumor bearers treated with NaCl or CTX, vancomycin or broad spectrum antibiotics (ATB) (ampicillin+streptomycin+colistin), were plated onto COS agar plates and after 48 h, single colonies were isolated and Gram staining was performed. The identification of specific bacteria was accomplished through the combination of morphological tests and the analysis through VITEK® automated system (BioMérieux, France) and verified in mass spectrometry (MALDI-TOF, see below) performed at Pasteur Institute, Paris, France.

splenocytes = assay: TCR cross-linking of splenocytes, IL-17 and IFNγ ELISA; type: in vivo, mice
MCA205 sarcomas = type: in vivo, C57BL/6 mice; conditions: mouse, in vivo
memory CD4+ T cells = conditions: 11 patients, after metronomic CTX
Description: Ex vivo restimulation assays using patients' autologous monocytes loaded with defined bacteria for 3 hours, neutralized with antibiotics, then cultured in GM-CSF+IL-4 (to differentiate into DC) and incubated for 3 days with CD4^+CD45RO^+ T cells (at a 1:2 ratio) purified from autologous blood at various time points (Day 0: before CTX, Day 12-46: after CTX, NSCLC: non small cell lung cancer). A. Cytokine release (IFNγ, TNF, IL-10) was monitored using ELISA. […] C. […] B-D show the cytokine levels in the 40 h supernatants of 250.000 memory CD4^+ T cells for each individual patient pre- and post-CTX administration.
The responses that were monitored included those against enterococci (E. hirae and E. faecalis, both immunogenic in mice receiving CTX), lactobacilli (L. johnsonii and the less relevant L. plantarum), as well as against E. coli.

[2] = tested on: Lysozyme M and RegIIIγ transcription; conditions: duodenum, 18 hours post-CTX
Description: Lamina propria cells were isolated from duodenum, ileum and colon 18 h post CTX, and total RNA extraction and genomic DNA removal were performed with the RNeasy Mini Kit (Qiagen, Hilden, Germany), following the manufacturer's instructions. Total RNA extraction and genomic DNA removal of ilea or duodena were performed with the RNeasy Mini Kit (Qiagen, Hilden, Germany), following the manufacturer's instructions. Total RNA was then reverse transcribed into cDNA with the SuperScript III Reverse Transcriptase and the RNaseOUT™ Recombinant Ribonuclease Inhibitor (Life Technologies, Saint Aubin, France), in the presence of random primers (Promega, Charbonnieres, France) and the Deoxynucleoside Triphosphate Set, PCR grade (Roche Diagnostics, Meylan, France). Expression of RegIIIγ (Mm00441127_m1) and LysM (Mm01612741_m1)-related genes was analyzed with TaqMan® Gene Expression Assays using the Universal Master Mix II on a StepOnePlus™ Real-Time PCR System (Life Technologies, France). Quantitative RT-PCR data were invariably normalized to the expression levels of the housekeeping gene peptidylprolyl isomerase A (Ppia) by means of the 2^−ΔCt method.

[3] = 18 h post CTX
Description: Gut barrier integrity was assessed by permeability to FITC-dextran (4 kDa, Sigma Aldrich). Fourteen hours after i.p. injection with NaCl or CTX at 100 or 200 mg/kg, mice were fasted for 4 hours and then orally fed with FITC-dextran at 0.6 mg/g body weight (80 mg/ml in NaCl, 18 h after NaCl/CTX treatment). After 3 to 4 h, the mice were euthanized and exsanguinated by cardiac puncture. Plasma FITC levels were subsequently determined using a fluorescence spectrophotometer (λex/λem=485/535 nm).

[4] = tested on: small intestine mucosal microbiota; conditions: mouse, in vivo
[5] = tested on: bacterial groups associated with small intestine mucosa
[6] = tested on: lamina propria cells of the small intestine; conditions: 7 days post-CTX
splenic CD4+ T cells = conditions: mouse, in vivo
[7] = tested on: CBir1 TCR Tg CD4+ T cells; conditions: mouse, in vivo
Description: CD4^+ T cells were isolated from B6.CBir1 TCR Tg mice using anti-mouse CD4 magnetic beads. Briefly, splenic cells were washed twice and incubated with anti-CD4 magnetic beads at 4° C. for 30 min and then separated by magnetic field. When checked by flow cytometry, over 95% of the cells were CD4^+ T cells. One million CBir1 Tg T cells (CD45.1^+) were adoptively transferred i.v. into CTX or NaCl treated-naïve congenic (CD45.2^+) mice two days after chemotherapy and spleens were harvested at day 5-7 post-transfer for flow cytometry analyses and ex vivo splenocyte restimulations. Flow cytometry analyses gated on CD45.1^+ cells to appreciate percentages of intracellular IL-17^+ or IFNg^+ cells after PMA/ionomycin 5 h restimulation in the presence of monensin.

gut microbiota [8] = conditions: NOD1-/-xNOD2-/- naive mice, CTX compared with PBS, seven days
splenic pTh17 cells = assay: Flow cytometry of splenic pTh17 / TH1 / Tc1 cells
Description: For cross-linking experiment, 2×10^5 total splenocytes per well (after red cell lysis) were incubated in MaxiSorp plates (Nunc) precoated with anti-CD3ε mAb (145-2C11) (0.5 μg per well; eBioscience) and/or anti-CD28 mAb (37.51) (2 μg/ml; BD). The supernatants were assayed at 48 h by ELISA for mouse IL-17A (eBioscience) and IFNγ (BD). […] For intracellular, cells were incubated for 4 h at 37° C. with 50 ng/ml of PMA, 1 μg/ml of ionomycin and BD Golgi STOP™. After membrane staining, cells were stained with anti-IL-17A, IFNγ, T-bet and RORγt using eBioscience FoxP3/Transcription factor staining buffer set.

tumor = assay: Effects of ATB regimen on the efficacy of CTX (tumor outgrowth); type: in vivo, mice; conditions: ATB regimen 15 days prior to tumor inoculation
Description: Distinct ATB regimen (Zhang Y et al. Toxicology and Applied Pharmacology 277 (2014) 138-145) were administered for 15 days prior to tumor inoculation and CTX therapy every other 13 days. Tumor outgrowth was monitored with a caliper twice a week. […] Each experiment contains several groups of 5 mice. *Anova test: p<0.05.

gut microbiota [9] = conditions: Zhang Y et al., 2014; cited from earlier work

O=P1(N(CCCl)CCCl)NCCCO1 (centres unmarked) [CTX, cyclophosphamide]
inflammatory status of the gut epithelial barrier (histology) [1]: shortening of small intestinal villi, discontinuities of the epithelial barrier, interstitial edema and focal accumulation of mononuclear cells in the lamina propria
Lactobacillus johnsonii cultured from lymphoid organs (commensal bacteria; 48 h post therapy): > 40 % cases
mice with translocation of commensal bacteria into mesenteric lymph nodes and spleens (commensal bacteria; 48 h post-CTX): > 50 % mice
bacterial translocation (colonies from spleens, anaerobic conditions) in NOD1xNOD2-/- (commensal bacteria; 48 hrs post-CTX): enhanced
polarization of splenic CD4+ T cells towards Th1 and Th17 pattern (splenocytes; day 7 after treatment): induced the polarization
increase of ex vivo IL-17 release by TCR-stimulated splenocytes (splenocytes; germ-free (GF) mice): failed to do so
ex vivo IL-17 release by TCR-stimulated splenocytes (splenocytes; specific pathogen-free (SPF) mice): increased
antitumor effects against MCA205 sarcomas, GF versus SPF mice (MCA205 sarcomas): reduced in GF compared with SPF mice
immune-dependent anti-sarcoma effects in NOD1-/-xNOD2-/- mice (MCA205 sarcomas): significantly enhanced
immune-dependent anti-sarcoma effects in single knock out mice (NOD1 or NOD2 or RIP2 or CARD15) compared with WT (MCA205 sarcomas): not ameliorated
patients developing memory Th1 responses against E. coli (memory CD4+ T cells): 18%
patients developing memory Th1 responses against L. johnsonii (memory CD4+ T cells): 18%
patients developing memory Th1 responses against enterococci (memory CD4+ T cells): 54%
patients mounting a cellular immune response against L. plantarum (memory CD4+ T cells): 9%
expression of the antibacterial enzyme lysozyme [2]: upregulated
intestinal permeability (orally administered FITC-dextran detectable in blood) [3]: increase
bacterial species/groups from the Firmicutes phylum in mucosa [4]: reduction
dysbiosis at early time points [4]: failed to cause a major dysbiosis
microbial composition of small intestine and caecum [4]: significantly altered the microbial composition of the small intestine (but not of the caecum)
proportion of Spirochaetes phylum [4]: reduction
relative abundance of the Treponema genus [4]: 0%
relative abundance: Butyrate-producing bacterium M62/1 (AY305309) [4]: 0.07% and 0.06%
relative abundance: Butyrate-producing bacterium SM4/1 (AY305314) [4]: 0.21% and 0.20%
relative abundance: Clostridium sp ASF502 (AF157053) [4]: 0.01% and 0.00%
relative abundance: Clostridium sp. A9 (DQ789119) [4]: 0.23% and 0.27%
relative abundance: Clostridium sp. Clone-33 (AB622843) [4]: 0.02% and 0.00%
relative abundance: Clostridium sp. Clone-40 (AB622844) [4]: 0.05% and 0.02%
relative abundance: Clostridium sp. Clone-49 (AB622849) [4]: 0.07% and 0.09%
relative abundance: Clostridium sp. Culture-41 (AB622820) [4]: 0.10% and 0.08%
relative abundance: Clostridium sp. Culture-54 (AB622823) [4]: 0.03% and 0.04%
relative abundance: Coprococcus catus; L8 (AB361624) [4]: 0.03%
relative abundance: Lachnospiraceae bacterium 14-2 (DQ789124) [4]: 0.05% and 0.02%
relative abundance: Lactobacillus reuteri; LU3 (AY735406) [4]: 0.24% and 0.14%
relative abundance: Roseburia faecis (T); M7211 (AY305310) [4]: 0.35% and 0.41%
relative abundance: Roseburia intestinalis; XB6B4 (AM055815) [4]: 0.02% and 0.00%
relative abundance: Rumen bacterium NK4A66 (GU124467) [4]: 0.07% and 0.10%
relative abundance: Tannerella forsythia; OB071 (JN713185) [4]: 0.02%
relative amounts of SFB and TM7 or Clostridium group XIV ([5]; day 7 post-CTX (not shown)): No CTX-specific modulations
abundance of lactobacilli and enterococci ([5]; small intestine mucosa, 7 days post-CTX): reduction
bacterial counts of the Clostridium leptum ([5]; tumor bearers, 7 days post-CTX): not affected
total bacterial load of the small intestine ([5]; tumor bearers, 7 days post-CTX): not affected
frequencies of CD103+CD11b+ dendritic cells in lamina propria of the small intestine [6]: significantly decreased
frequencies of TCRαβ+CD3+ T cells expressing RORγt in lamina propria of the small intestine [6]: significantly decreased
mice with Th1 memory responses against L. johnsonii (splenic CD4+ T cells): 50 % of mice
immune responses against commensal bacteria (CBir1 Tg T cells) [7]: induced TCR-restricted, antigen specific immune responses against commensal bacteria
Clostridiaceae in the small intestines (gut microbiota [8]): overrepresentation
Erysipelotrichaceae in SI (gut microbiota [8]): relative loss
Lachnospiraceae in feces (gut microbiota [8]): relative loss
Porphyromonadaceae (mainly Barnesiella) in the stool (gut microbiota [8]): overrepresentation
frequency of pathogenic Th17 (pTh17) cells within the spleen (splenic pTh17 cells; 7 days after treatment): increased
priming of splenic pTH17 cells in NOD2-/- mice (splenic pTh17 cells; following CTX administration): augmented

O=C(O)c1cn(C2CC2)c2cc(N3CCNCC3)c(F)cc2c1=O [cifloxacin]
effect on the CTX-induced antitumor effects (tumor): not efficient
Bacteroidetes in gut microbiota (gut microbiota [9]): marked suppression

Reference: patent US10646521B2, “Microbiota composition, as a marker of responsiveness to chemotherapy, and use of microbial modulators (pre-, pro- or synbiotics) for improving the efficacy of a cancer treatment” (INSTITUT GUSTAVE ROUSSY, priority 2013, dated 2020)
